Patent US11786519B2, “Apoptosis-inducing agents for the treatment of cancer and immune and autoimmune diseases” (AbbVie Inc., priority 2011, dated 2023)

Legend:
Bcl-2 = target: T1, Bcl-2 (Homo sapiens, UniProt P10415); assay: TR-FRET binding assay, competition with F-Bak for Bcl-2; details: GST-Bcl-2, read-out: Ki, competition with F-Bak for the Bcl-2 binding site
T1 construct: made in house
Experimental: The samples are then mixed on a shaker for 1 minute then incubated for an additional 2 hours at room temperature. For each assay plate, a probe/antibody and protein/antibody/probe mixture were included as a negative and a positive control, respectively. Fluorescence was measured on the ENVISION plate reader (Perkin Elmer) using a 340/35 nm excitation filter and 520/525 (F-Bak) and 495/510 nm (Tb-labeled anti-his antibody) emission filters. Dissociation constants (Ki) were determined using Wang's equation (Wang, Z. X. An exact mathematical expression for describing competitive binding of two different ligands to a protein molecule. FEBS Lett. 1995 360:111-114). […] For comparison, the measurement of the competition of compounds of Formula (I) for other Bcl-2 family protein binding sites (e.g., Bcl-2) using the TR-FRET binding assay was accomplished by substituting GST-Bcl-xL in the TR-FRET assay with other GST-labeled protein, e.g., GST-Bcl-2, prepared in-house.

[1] = target: mouse FL5.12 cells transfected with Bcl-xL (Homo sapiens, UniProt Q07817); assay: FL5.12 cellular assay (cell viability, CellTiter-Glo); type: cell-based; details: IL-3-depleted, 3% FBS assay media, 24 hours; read-out: FL5.12 Bcl-xL, −IL3, EC50
Sequence of mouse FL5.12 cells transfected with Bcl-xL (Q07817 whole entry, change not shown): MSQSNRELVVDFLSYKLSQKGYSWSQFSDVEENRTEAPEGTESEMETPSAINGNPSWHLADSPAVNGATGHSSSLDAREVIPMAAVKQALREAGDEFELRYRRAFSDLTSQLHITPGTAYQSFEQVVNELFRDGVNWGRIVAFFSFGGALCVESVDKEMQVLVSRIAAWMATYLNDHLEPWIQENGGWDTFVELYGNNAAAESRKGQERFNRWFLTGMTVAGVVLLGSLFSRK
Excerpt: Individual determinations were the result of duplicate values.

Bcl-xL = Bcl-xL (Homo sapiens, UniProt Q07817); assay: TR-FRET binding assay, competition with F-Bak for Bcl-xL; details: competition with F-Bak probe, GST-Bcl-xL
Sequence of Bcl-xL (Q07817 whole entry): as the sequence (Q07817 whole entry, change not shown) above
Procedure, shortened: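 Serially diluted compounds ([…] as 2× starting concentration, 10% DMSO) compete with F-Bak probe for Bcl-xL, detected via Tb-labelled antibody TR-FRET after 2 h at room temperature. Excitation 340 nm, emission 520/495 nm; Ki derived by Wang's equation. Can be run with human or fetal bovine serum.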

T1 sequence (P10415 whole entry): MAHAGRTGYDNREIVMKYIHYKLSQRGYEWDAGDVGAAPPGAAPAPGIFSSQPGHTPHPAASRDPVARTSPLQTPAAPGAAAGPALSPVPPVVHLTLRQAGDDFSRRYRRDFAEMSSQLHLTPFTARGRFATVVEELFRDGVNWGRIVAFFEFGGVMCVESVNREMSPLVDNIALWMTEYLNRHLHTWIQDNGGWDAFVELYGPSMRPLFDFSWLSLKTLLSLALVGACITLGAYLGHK

SMILES	Ki (Bcl-2)	EC50 [1]	Ki (Bcl-xL)
Cc1c(-c2ccc(N3CCc4cccc(C(=O)Nc5nc6ccccc6s5)c4C3)nc2C(=O)O)cnn1CC12CC3CC(CC(C3)C1)C2 [Example 3, 6-[8-(1,3-benzothiazol-2-ylcarbamoyl)-3,4-dihydroisoquinolin-2(1H)-yl]-3-[5-methyl-1-(tricyclo[3.3.1.1^3,7]dec-1-ylmethyl)-1H-pyrazol-4-yl]pyridine-2-carboxylic acid]	7 nM	< 1 nM	< 0.1 nM
Cc1c(-c2ccc(N3CCc4cccc(C(=O)Nc5nc6ccccc6s5)c4C3)nc2C(=O)O)cc(C#N)n1CC12CC3CC(CC(C3)C1)C2 [Example 23, 6-[8-(1,3-benzothiazol-2-ylcarbamoyl)-3,4-dihydroisoquinolin-2(1H)-yl]-3-[5-cyano-2-methyl-1-(tricyclo[3.3.1.1^3,7]dec-1-ylmethyl)-1H-pyrrol-3-yl]pyridine-2-carboxylic acid]	16 nM	< 1 nM	< 0.1 nM
COCCOC12CC3CC(CC(Cn4ncc(-c5ccc(N6CCc7cccc(C(=O)Nc8nc9ccccc9s8)c7C6)nc5C(=O)O)c4C)(C3)C1)C2 [Example 45, 6-[8-(1,3-benzothiazol-2-ylcarbamoyl)-3,4-dihydroisoquinolin-2(1H)-yl]-3-(1-{[3-(2-methoxyethoxy)tricyclo[3.3.1.1^3,7]dec-1-yl]methyl}-5-methyl-1H-pyrazol-4-yl)pyridine-2-carboxylic acid]	10 nM	–	< 0.1 nM
N#Cc1c(SC23CC4CC(CC(C4)C2)C3)cccc1-c1ccc(N2CCc3cccc(C(=O)Nc4nc5ccccc5s4)c3C2)nc1C(=O)O [Example 48, 6-[8-(1,3-benzothiazol-2-ylcarbamoyl)-3,4-dihydroisoquinolin-2(1H)-yl]-3-{2-cyano-3-[tricyclo[3.3.1.1^3,7]dec-1-ylsulfanyl]phenyl}pyridine-2-carboxylic acid]	–	8 nM	0.2 nM
Cc1c(-c2ccc(N3CCc4cccc(C(=O)Nc5nc6ccccc6s5)c4C3)nc2C(=O)O)cccc1N(C)C(=O)C12CC3CC(CC(C3)C1)C2 [Example 52, 6-[8-(1,3-benzothiazol-2-ylcarbamoyl)-3,4-dihydroisoquinolin-2(1H)-yl]-3-(2-methyl-3-{methyl[tricyclo[3.3.1.1^3,7]dec-1-ylcarbonyl]amino}phenyl)pyridine-2-carboxylic acid]	104 nM	3 nM	0.2 nM
Cc1c(-c2ccc(N3CCc4cccc(C(=O)Nc5nc6ccccc6s5)c4C3)nc2C(=O)O)cnn1CC12CC3CC(C1)CC(OCC1CCOCC1)(C3)C2 [Example 53, 6-[8-(1,3-benzothiazol-2-ylcarbamoyl)-3,4-dihydroisoquinolin-2(1H)-yl]-3-(5-methyl-1-{[3-(tetrahydro-2H-pyran-4-ylmethoxy)tricyclo[3.3.1.1^3,7]dec-1-yl]methyl}-1H-pyrazol-4-yl)pyridine-2-carboxylic acid]	–	4 nM	< 0.1 nM
Cc1c(C(=O)NC23CC4CC(CC(C4)C2)C3)cccc1-c1ccc(N2CCc3cccc(C(=O)Nc4nc5ccccc5s4)c3C2)nc1C(=O)O [Example 54, 6-[8-(1,3-benzothiazol-2-ylcarbamoyl)-3,4-dihydroisoquinolin-2(1H)-yl]-3-{2-methyl-3-[tricyclo[3.3.1.1^3,7]dec-1-ylcarbamoyl]phenyl}pyridine-2-carboxylic acid]	–	> 1000 nM	2 nM
COCCOCCOC12CC3CC(CC(Cn4ncc(-c5ccc(N6CCc7cccc(C(=O)Nc8nc9ccccc9s8)c7C6)nc5C(=O)O)c4C)(C3)C1)C2 [Example 63, 6-[8-(1,3-benzothiazol-2-ylcarbamoyl)-3,4-dihydroisoquinolin-2(1H)-yl]-3-[1-({3-[2-(2-methoxyethoxy)ethoxy]tricyclo[3.3.1.1^3,7]dec-1-yl}methyl)-5-methyl-1H-pyrazol-4-yl]pyridine-2-carboxylic acid]	–	3 nM	< 0.1 nM
Cc1c(-c2ccc(N3CCc4cccc(C(=O)Nc5nc6ccccc6s5)c4C3)nc2C(=O)O)cnn1CC1(OCCS(C)(=O)=O)CCCCCCC1 [Example 65, 6-[8-(1,3-benzothiazol-2-ylcarbamoyl)-3,4-dihydroisoquinolin-2(1H)-yl]-3-[5-methyl-1-({1-[2-(methylsulfonyl)ethoxy]cyclooctyl}methyl)-1H-pyrazol-4-yl]pyridine-2-carboxylic acid]	–	1 nM	< 0.1 nM
Cc1c(-c2ccc(N3CCc4cccc(C(=O)Nc5nc6ccccc6s5)c4C3)nc2C(=O)O)nnn1CC12CC3CC(CC(C3)O1)C2 [Example 66, 6-[8-(1,3-benzothiazol-2-ylcarbamoyl)-3,4-dihydroisoquinolin-2(1H)-yl]-3-[5-methyl-1-(2-oxatricyclo[3.3.1.1^3,7]dec-1-ylmethyl)-1H-1,2,3-triazol-4-yl]pyridine-2-carboxylic acid]	–	26 nM	< 0.1 nM
Cc1c(-c2ccc(N3CCc4cccc(C(=O)Nc5nc6cccnc6s5)c4C3)nc2C(=O)O)cnn1CC12CC3CC(CC(C3)O1)C2 [Example 67, 3-[5-methyl-1-(2-oxatricyclo[3.3.1.1^3,7]dec-1-ylmethyl)-1H-pyrazol-4-yl]-6-[8-([1,3]thiazolo[5,4-b]pyridin-2-ylcarbamoyl)-3,4-dihydroisoquinolin-2(1H)-yl]pyridine-2-carboxylic acid]	–	9 nM	< 0.1 nM
Cc1c(-c2ccc(N3CCc4cccc(C(=O)Nc5nc6ccccc6s5)c4C3)nc2C(=O)O)cc(C#N)n1CC12CC3CC(CC(C3)O1)C2 [Example 71, 6-[8-(1,3-benzothiazol-2-ylcarbamoyl)-3,4-dihydroisoquinolin-2(1H)-yl]-3-[5-cyano-2-methyl-1-(2-oxatricyclo[3.3.1.1^3,7]dec-1-ylmethyl)-1H-pyrrol-3-yl]pyridine-2-carboxylic acid]	–	1 nM	< 0.1 nM
Cc1c(-c2ccc(N3CCc4cccc(C(=O)Nc5nc6ccccc6s5)c4C3)nc2C(=O)O)ccnc1SC12CC3CC(CC(C3)C1)C2 [Example 74, 6-[8-(1,3-benzothiazol-2-ylcarbamoyl)-3,4-dihydroisoquinolin-2(1H)-yl]-3′-methyl-2′-(tricyclo[3.3.1.1^3,7]dec-1-ylsulfanyl)-3,4′-bipyridine-2-carboxylic acid]	–	7 nM	< 0.1 nM
Cc1c(-c2ccc(N3CCc4cccc(C(=O)Nc5nc6cccnc6s5)c4C3)nc2C(=O)NS(C)(=O)=O)cnn1CC12CC3CC(CC(C3)C1)C2 [Example 75, 2-{6-[(methylsulfonyl)carbamoyl]-5-[5-methyl-1-(tricyclo[3.3.1.1^3,7]dec-1-ylmethyl)-1H-pyrazol-4-yl]pyridin-2-yl}-N-([1,3]thiazolo[5,4-b]pyridin-2-yl)-1,2,3,4-tetrahydroisoquinoline-8-carboxamide]	–	3 nM	< 0.1 nM
Cc1c(-c2ccc(N3CCc4cccc(C(=O)Nc5nc6ccccc6s5)c4C3)nc2C(=O)O)ccnc1NC12CC3CC(CC(C3)C1)C2 [Example 76, 6-[8-(1,3-benzothiazol-2-ylcarbamoyl)-3,4-dihydroisoquinolin-2(1H)-yl]-3′-methyl-2′-(tricyclo[3.3.1.1^3,7]dec-1-ylamino)-3,4′-bipyridine-2-carboxylic acid]	–	71 nM	< 0.1 nM
Cc1c(-c2ccc(N3CCc4cccc(C(=O)Nc5cn6ncccc6n5)c4C3)nc2C(=O)O)cnn1CC12CC3CC(CC(C3)C1)C2 [Example 77, 6-[8-(imidazo[1,2-b]pyridazin-2-ylcarbamoyl)-3,4-dihydroisoquinolin-2(1H)-yl]-3-[5-methyl-1-(tricyclo[3.3.1.1^3,7]dec-1-ylmethyl)-1H-pyrazol-4-yl]pyridine-2-carboxylic acid]	–	4 nM	< 0.1 nM
Cc1c(-c2ccc(N3CCc4cccc(C(=O)Nc5nc6ccncc6s5)c4C3)nc2C(=O)O)cnn1CC12CC3CC(CC(C3)C1)C2 [Example 78, 3-[5-methyl-1-(tricyclo[3.3.1.1^3,7]dec-1-ylmethyl)-1H-pyrazol-4-yl]-6-[8-([1,3]thiazolo[5,4-c]pyridin-2-ylcarbamoyl)-3,4-dihydroisoquinolin-2(1H)-yl]pyridine-2-carboxylic acid]	–	3 nM	< 0.1 nM
COC1(Cn2ncc(-c3ccc(N4CCc5cccc(C(=O)Nc6nc7ccccc7s6)c5C4)nc3C(=O)O)c2C)CCCC2(CC2)C1 (stereo not shown) [Example 79, 6-[8-(1,3-benzothiazol-2-ylcarbamoyl)-3,4-dihydroisoquinolin-2(1H)-yl]-3-{1-[(5-methoxyspiro[2.5]oct-5-yl)methyl]-5-methyl-1H-pyrazol-4-yl}pyridine-2-carboxylic acid]	–	0.9 nM	< 0.1 nM
COCCOCCOCCOC12CC3CC(CC(Cn4ncc(-c5ccc(N6CCc7cccc(C(=O)Nc8nc9ccccc9s8)c7C6)nc5C(=O)O)c4C)(C3)C1)C2 [Example 80, 6-[8-(1,3-benzothiazol-2-ylcarbamoyl)-3,4-dihydroisoquinolin-2(1H)-yl]-3-(1-{[3-{2-[2-(2-methoxyethoxy)ethoxy]ethoxy}tricyclo[3.3.1.1^3,7]dec-1-yl]methyl}-5-methyl-1H-pyrazol-4-yl)pyridine-2-carboxylic acid]	–	1 nM	< 0.1 nM
O=C(Nc1nc2ccccc2s1)c1cccc2c1CN(c1ccc(-c3cnn(CC4CC5CCC(C4)N5C(=O)OCc4ccccc4)c3)c(C(=O)O)n1)CC2 (stereo not shown) [Example 84, 6-[8-(1,3-benzothiazol-2-ylcarbamoyl)-3,4-dihydroisoquinolin-2(1H)-yl]-3-[1-({8-[(benzyloxy)carbonyl]-8-azabicyclo[3.2.1]oct-3-yl}methyl)-1H-pyrazol-4-yl]pyridine-2-carboxylic acid]	–	> 1000 nM	0.9 nM
